Experiments:
[1] = tested on: MIP101 cells resistant to 5-FU (MIP-5FUR, MIP/5FU); assay: TUNEL assay of apoptosis in 5-FU resistant MIP101 cells; format: cell-based
Experimental: (§1) Cell Culture—The colorectal cell line MIP-101 was maintained in Dulbecco's modified Eagle's medium (DMEM) (Invitrogen) supplemented with 10% fetal bovine serum (FBS) (Invitrogen), 1% penicillin/streptomycin (Invitrogen) at 37° C. and 5% CO2. Resistant MIP101 cells were developed following long-term incubation with incremental concentrations of 5-fluorouracil (5-FU), irinotecan (CPT-11), cisplatin (CIS), and etoposide (ETO). Stable MIP101 cells transduced with SPARC (MIP/SP) were maintained in DMEM supplemented with 10% FBS, 1% penicillin/streptomycin, and 0.1% Zeocin at 37° C. and 5% CO2.
(§2) Quantitation of Apoptosis—For the TUNEL assay, cells were plated onto glass coverslips in 6-well plates at 250,000 cells/plate overnight prior to any induction study 24 hours later. […] Cells were then processed for labeling by Apoptosis Detection Kit (Promega) according to the manufacturer's instructions. For quantitation of apoptosis, cells were plated at 250,000 cells/plate in 6-well plates overnight, followed by 12-hr incubation with the following chemotherapy agents: 5-FU 1000 μM, CPT-11 200 μM, cisplatin 100p4, and etoposide 10 μM. Cells were collected by using a nonenzymatic cell dissociation medium (Sigma), washed with phosphate-buffered saline and subsequently stained for Annexin V and propidium iodide using an Apoptosis detection kit (R & D Research) according to the manufacturer's protocol. The proportion of cells labeled with Annexin V and propidium iodide was analyzed by XL Flow Cytometry Analyzer. Data was collected from 100,000 events.

[2] = tested on: parental MIP101 cells; assay: TUNEL assay of apoptosis in parental MIP101 cells; format: cell-based
Experimental: as §1, §2

[3] = tested on: MIP/SP cells; assay: Colony forming (clonogenic) assay, SPARC-overexpressing cells versus control; format: cell-based; details: increasing concentrations of chemotherapy (FIG. 21B)
Experimental: Transfection and Selection of Clone—The SPARC cDNA was cloned into pcDNA3.1 expression vector. Transfections were performed with 2.0 μg of the gene/expression vector construct using the polyethylenimine method of Boussiff et al. (1995) with minor modifications (Tai et al., 2002). After transfection, cells were washed with phosphate-buffered saline (PBS, pH 7.4) and maintained in culture medium for 24 hours, followed by a change to an appropriate selection medium containing 1% Zeocin. Cells were selected based on Zeocin resistance and individual colonies and clones from these colonies were then propagated for further verification. Stably transduced clones (MIP/SP) were screened for SPARC mRNA expression by reverse-transcription polymerase chain reaction (RT-PCR) analysis. MIP/SP clones with the highest expression of SPARC mRNA (by RT-PCR) and protein (by Western blot) were selected for subsequent in-vitro and in-vivo studies. Control cell lines used for this study included MIP101 cells stably transduced with pcDNA3.1 empty vector only (MLP/Zeo) and selected based on Zeocin resistance. Colony forming Assay—For clonogenic cell survival studies, MIP101 parental cells and MIP/SP cells were plated at 1,000 cells/plate in 48-well plates and incubated with increasing concentrations of 5-FU (0, 10 μM, 100 μM, 1000 μM), CPT-11 (0, 1 μM, 10 μM, 100 μM), or etoposide (0, 10 μM, 100 μM, 1000 μM) for 4 days. Cells were then washed with PBS and incubated in fresh medium containing the appropriate concentrations of chemotherapy for an additional 7 days. Each well was stained with crystal violet and the colonies with more than 50 cells were counted. The number of colonies formed in the treated group was calculated based on the colonies formed from the control, untreated cells.

[4] = tested on: MIP/SP cells; assay: Quantitation of apoptosis by Annexin V labeling and flow cytometry, SPARC-overexpressing cells versus control; format: cell-based; details: 12-hr exposure, p<0.05
Experimental: Quantitation of Apoptosis—For the TUNEL assay, cells were plated onto glass coverslips in 6-well plates at 250,000 cells/plate overnight prior to any induction study 24 hours later. For the assessment of apoptosis following exogenous SPARC (Haematologic Technologies Inc), cells were incubated with SPARC 5 μg/ml for 24 hrs followed by a 12-hr exposure to 5-FU 1000 μM. Cells were then processed for labeling by Apoptosis Detection Kit (Promega) according to the manufacturer's instructions. For quantitation of apoptosis, cells were plated at 250,000 cells/plate in 6-well plates overnight, followed by 12-hr incubation with the following chemotherapy agents: 5-FU 1000 μM, CPT-11 200 μM, cisplatin 100p4, and etoposide 10 μM. Cells were collected by using a nonenzymatic cell dissociation medium (Sigma), washed with phosphate-buffered saline and subsequently stained for Annexin V and propidium iodide using an Apoptosis detection kit (R & D Research) according to the manufacturer's protocol. The proportion of cells labeled with Annexin V and propidium iodide was analyzed by XL Flow Cytometry Analyzer. Data was collected from 100,000 events.
Transfection and Selection of Clone—The SPARC cDNA was cloned into pcDNA3.1 expression vector. Transfections were performed with 2.0 μg of the gene/expression vector construct using the polyethylenimine method of Boussiff et al. (1995) with minor modifications (Tai et al., 2002). After transfection, cells were washed with phosphate-buffered saline (PBS, pH 7.4) and maintained in culture medium for 24 hours, followed by a change to an appropriate selection medium containing 1% Zeocin. Cells were selected based on Zeocin resistance and individual colonies and clones from these colonies were then propagated for further verification. Stably transduced clones (MIP/SP) were screened for SPARC mRNA expression by reverse-transcription polymerase chain reaction (RT-PCR) analysis. MIP/SP clones with the highest expression of SPARC mRNA (by RT-PCR) and protein (by Western blot) were selected for subsequent in-vitro and in-vivo studies. Control cell lines used for this study included MIP101 cells stably transduced with pcDNA3.1 empty vector only (MLP/Zeo) and selected based on Zeocin resistance.

[5] = tested on: MIP101 tumor xenografts; assay: MIP101 tumor xenograft animal model; format: in vivo, NIH nude mice; details: 5-FU alone, n=6
Experimental: (§3) Concentrated SPARC-containing supernatant [SPARC(s)]—MIP/SP cells were plated at 1×10^6 cells in […] in DMEM (10% FBS, 1% penicillin/streptomycin, 0.1% Zeocin) for 24 hrs. Cells were subsequently washed with PBS twice and incubated in serum-free VP-SFM medium supplemented with glutamine 4 mM (Invitrogen) for 72 hrs. This medium was concentrated from 500 ml to 2 ml using Centricon Filter units (Millipore) at 4° C. All media collected and processed by this method were used for subsequent animal studies.
(§4) Animal Studies—Tumor xenograft animal models were used to assess the effect of SPARC on tumor progression in-vivo. NIH nude mice (6 weeks old, Taconic Laboratories) were engrafted following subcutaneous injection of 2×10^6 cells into the left flank. Treatment regimens were initiated once the average tumor size was 50-75 mm^3 in size. Tumor measurements were performed using a hand-held caliper (Fisher) twice weekly and weight measurements were made concurrently until the completion of the study. Chemotherapy was provided using a 3-week cycle regimen for a total of 6 cycles: 5-FU 25 mg/kg or CPT-11 25 mg/kg intraperitoneal injections three times on week 1 of each cycle, followed by 2 weeks of treatment-free periods. Dosing schedule for SPARC(s) was 100 μL of SPARC(s) three times per week until the completion of the chemotherapy cycle.

[6] = tested on: MIP/5FU tumor xenografts; assay: MIP/5FU tumor xenograft animal model; format: in vivo, NIH nude mice; details: 5-FU alone (FIG. 18), n=6
Experimental: as §3, §4

[7] = tested on: MIP/SP tumor xenografts; assay: Tumor xenografts of SPARC-overexpressing cells treated with chemotherapy; format: in vivo, NIH nude mice; details: for rate of tumor regression, MIP/SP versus parental MIP101 xenografts: FIG. 14
Experimental: as §4

Molecule: O=c1[nH]cc(F)c(=O)[nH]1 [5-FU, 5-fluorouracil]
- apoptosis (TUNEL) ([1]; MIP-5FUR cells, 5-FU 500 uM): could not be triggered to undergo apoptosis
- apoptosis (TUNEL stain) ([1]; resistant phenotype (MIP/5FU), 5-FU 1000 uM (FIG. 21A)): lack of apoptosis
- apoptosis (TUNEL) ([2]; parental sensitive MIP101 cells, 5-FU at a similar concentration (500 uM)): a significant number of cells from the parental, sensitive cell line underwent apoptosis
- apoptosis (TUNEL stain) ([2]; sensitive MIP101 cells, 5-FU 1000 uM (FIG. 21A)): positively stained cells
- cell colonies, MIP/SP versus MIP/Zeo [3]: fewer cell colonies of MIP/SP cells
- cells undergoing apoptosis, MIP/SP versus MIP/Zeo [4]: Greater number
- complete tumor regression ([5]; by 42 days post-treatment (FIG. 17)): not observed
- complete tumor regression ([5]; by 84 days post-treatment (FIG. 16)): not observed
- tumor growth [6]: rapid tumor growth continued
- rate of tumor regression, MIP/SP versus parental MIP101 xenografts [7]: more rapid rate of tumor regression
- remission of MIP-SPARC xenograft ([7]; representative animals, 2 cycles of 5-FU, by 23 days post-transplant): complete remission

Molecule: CCc1c2c(nc3ccc(OC(=O)N4CCC(N5CCCCC5)CC4)cc13)-c1cc3c(c(=O)n1C2)COC(=O)[C@]3(O)CC [CPT-11, irinotecan]
- cell colonies, MIP/SP versus MIP/Zeo [3]: fewer cell colonies of MIP/SP cells
- cells undergoing apoptosis, MIP/SP versus MIP/Zeo [4]: Greater number
- rate of tumor regression, MIP/SP versus parental MIP101 xenografts [7]: more rapid rate of tumor regression
- tumor size versus parental MIP101 xenograft ([7]; representative animals, 2 cycles of CPT-11): significantly smaller tumors

Molecule: N.N.[Cl][Pt][Cl] [cisplatin]
- cells undergoing apoptosis, MIP/SP versus MIP/Zeo [4]: Greater number

Molecule: COc1cc([C@@H]2c3cc4c(cc3[C@@H](O[C@@H]3O[C@@H]5CO[C@@H](C)O[C@H]5[C@H](O)[C@H]3O)[C@H]3COC(=O)[C@H]23)OCO4)cc(OC)c1O [etoposide]
- cell colonies, MIP/SP versus MIP/Zeo [3]: fewer cell colonies of MIP/SP cells
- cells undergoing apoptosis, MIP/SP versus MIP/Zeo [4]: Greater number

B1: SPARC: Secreted protein acidic and rich in cystein; exogenous SPARC polypeptide (Haematologic Technologies Inc) (protein, UniProt P09486 18-303, looked up)
SPARC: APQQEALPDETEVVEETVAEVTEVSVGANPVQVEVGEFDDGAEETEEEVVAENPCQNHHCKHGKVCELDENNTPMCVCQDPTSCPAPIGEFEKVCSNDNKTFDSSCHFFATKCTLEGTKKGHKLHLDYIGPCKYIPPCLDSELTEFPLRMRDWLKNVLVTLYERDEDNNLLTEKQKLRVKKIHENEKRLEAGDHPVELLARDFEKNYNMYIFPVHWQFGQLDQHPIDGYLSHTELAPLRAPLIPMEHCTTRFFETCDLDNDKYIALDEWAGCFGIKQKDIDKDLVI
- sensitivity to 5-FU (TUNEL-positive cells) ([1]; MIP/5FU cells, 24 hr SPARC 5 ug/ml, then 5-FU 1000 uM (FIG. 21A)): once again became sensitive to 5-FU
- apoptosis (TUNEL), SPARC alone ([1]; resistant cells, exogenous SPARC alone without chemotherapy): did not induce apoptosis
- reversal of resistant phenotype (apoptotic cells by TUNEL) ([1]; resistant clones, SPARC 24-hr incubation followed by 12-hr exposure to a chemotherapeutic agent): sufficient in reversing the resistant phenotype
- apoptosis (TUNEL), SPARC alone ([2]; parental MIP 101 cells, exogenous SPARC alone without chemotherapy): did not induce apoptosis
